The values below come from patent US20260265222A1, “1H-PYRROLE-2-AMIDE DERIVATIVE, PHARMACEUTICAL COMPOSITION AND METHOD FOR TREATING AND/OR PREVENTING YTHDC1-RELATED DISEASES” (priority 2023, published 2026).

In this test the target is T1, GST-YTHDC1 (345-509) protein (Homo sapiens, UniProt Q96MU7).
T1 construct: GST-YTHDC1 (345-509) protein
In words: Fluorescence polarization-based in vitro enzyme-level test against YTHDC1. Particulars: 30 nM GST-YTHDC1 (345-509), FAM-labeled m6A-modified single-stranded oligonucleotide, 18° C., 4 hours; read-out: IC50 (Inhibitory Activity against YTHDC1). The format is binding.

Broadly, the IC50 is the concentration at which inhibition is half-maximal. Consider `O=C(Nc1ccc(-c2cnco2)cc1)c1cc(C(=O)c2ccccc2-c2ccccc2)c[nH]1` [Compound 152], for which the IC50 was 14 nM.

As to `CN(CCO)c1cc(NC(=O)c2cc(C(=O)c3ccccc3C(F)(F)F)c[nH]2)ccc1-c1cnco1` [Compound 99], the IC50 stood at 258 nM.

On to `CCN(C)c1ccccc1C(=O)c1c[nH]c(C(=O)Nc2ccc(-c3cnco3)cc2)c1` [Compound 127], for which the IC50 is 13 nM.

Take `COC1CN(c2ccccc2C(=O)c2c[nH]c(C(=O)Nc3ccc(-c4cnco4)cc3)c2)C1` [Compound 131]: the IC50 was 35 nM.

For `CN(C)c1ncc(-c2ccc(NC(=O)c3cc4c(-c5ccccc5S(C)(=O)=O)nccc4[nH]3)cc2)o1` [Compound 71], the IC50 was greater than 50000 nM.

On to `CCOC(=O)c1ccc(NC(=O)c2cc(C(=O)c3ccccc3C(F)(F)F)c[nH]2)cc1` [Compound 20], for which the concentration for half-maximal inhibition (IC50) turned out to be 23 nM.

For the molecule `O=C(Nc1ccc(-c2cnc(N3CCN(CCO)CC3)o2)cc1)c1cc(C(=O)c2ccccc2Br)c[nH]1` [Compound 86], the IC50 was found to be 847 nM.

Turning to `O=C(Nc1ccc(-c2cnco2)cc1)c1cc(C(=O)c2ccccc2CCCCO)c[nH]1` [Compound 143], the IC50 was determined as 9 nM.

As to `Cc1ncc(-c2ccc(NC(=O)c3cc(C(=O)c4ccccc4C(F)(F)F)c[nH]3)cc2)s1` [Compound 32], the half-inhibitory concentration (IC50) is 11 nM.

In the case of `O=C(Nc1ccc(-c2cnc(N3CCOCC3)s2)cc1)c1cc(C(=O)c2ccccc2C(F)(F)F)c[nH]1` [Compound 38], the IC50 was 17 nM.

In the case of `O=C(Nc1cccnc1)c1cc(C(=O)c2c(F)cc(F)cc2Br)c[nH]1` [Compound 3], the half-maximal inhibitory concentration (IC50) is greater than 50000 nM.

For `CC(C)(C)OC(=O)N1CCN2c3ccc(NC(=O)c4cc(C(=O)c5ccccc5C(F)(F)F)c[nH]4)cc3OCC2C1` (stereo not shown) [Compound 82], the IC50 worked out at 125 nM.

Take `COc1cc(NC(=O)c2cc(C(=O)c3ccccc3C(F)(F)F)c[nH]2)ccc1C(F)(F)F` [Compound 114]: the IC50 stood at 16 nM.

As to `Cn1nc(C(F)(F)F)cc1-c1ccc(NC(=O)c2cc(C(=O)c3ccccc3C(F)(F)F)c[nH]2)cc1` [Compound 30], the IC50 is 530 nM.

With `O=C(Nc1ccc(-c2cnc[nH]2)cc1)c1cc(C(=O)c2ccccc2C(F)(F)F)c[nH]1` [Compound 27], the IC50 came to 23 nM.

Turning to `O=C(Nc1ccc(-c2cnco2)cc1)c1cc(C(=O)c2ccccc2N2CC3(CCC3)C2)c[nH]1` [Compound 144], the IC50 stood at 48 nM.

As for `O=C(Nc1ccc(-c2cncnc2)cc1)c1cc(C(=O)c2ccccc2C(F)(F)F)c[nH]1` [Compound 102], the IC50 was 86 nM.

With `C[C@H]1CN(c2ccccc2C(=O)c2c[nH]c(C(=O)Nc3ccc(-c4cnco4)cc3)c2)C[C@H](C)O1` [Compound 149], the IC50 worked out at 41 nM.

As for `O=C(Nc1ccc(-c2cnco2)cc1)c1cc(C(=O)c2ccccc2C2=CCCC2)c[nH]1` [Compound 142], the half-maximal inhibitory concentration (IC50) stood at 25 nM.

On to `O=C(Nc1ccc(-c2cncs2)cc1)c1cc2c(-c3ccccc3OC(F)(F)F)nccc2[nH]1` [Compound 44], for which the half-maximal inhibitory concentration (IC50) came out at 138 nM.

In the case of `O=C(Nc1ccc(-c2cnco2)cc1)c1cc(C(=O)c2ccccc2C(F)(F)F)c[nH]1` [Compound 28], the 50% inhibitory concentration (IC50) stood at 10 nM.

On to `O=C(Nc1ccc(-c2cncs2)cc1)c1cc2c(ncn2-c2ccccc2C(F)(F)F)[nH]1` [Compound 42], for which the IC50 was determined as 180 nM.

Consider `CN(C)CCOc1cc(NC(=O)c2cc(C(=O)c3ccccc3C(F)(F)F)c[nH]2)ccc1-c1cnco1` [Compound 101], for which the 50% inhibitory concentration (IC50) turned out to be 43 nM.

For `O=C(Nc1ccc(-c2cnco2)cc1)c1cc(C(=O)c2ccccc2N2CCCCC2)c[nH]1` [Compound 132], the IC50 is 14 nM.

Turning to `COc1cc(NC(=O)c2cc(C(=O)c3ccccc3C(F)(F)F)c[nH]2)ccc1-c1cnco1` [Compound 90], the half-inhibitory concentration (IC50) is 3.7 nM.

As for `CCSc1ccccc1-c1nccc2[nH]c(C(=O)Nc3ccc(-c4cncs4)cc3)cc12` [Compound 68], the half-inhibitory concentration (IC50) amounted to 1670 nM.

In the case of `CN(C)c1ccccc1-c1ccc(NC(=O)c2cc(C(=O)c3ccccc3C(F)(F)F)c[nH]2)cc1` [Compound 110], the IC50 is 413 nM.

In the case of `O=C(Nc1ccc(-c2ccc(N3CCCC3)cc2)cc1)c1cc(C(=O)c2ccccc2C(F)(F)F)c[nH]1` [Compound 106], the half-inhibitory concentration (IC50) amounted to 1770 nM.

Consider `O=C(Nc1ccccc1F)c1cc(C(=O)c2ccccc2C(F)(F)F)c[nH]1` [Compound 13], for which the IC50 amounted to 612 nM.

For the molecule `CC(C)(C)OC(=O)N1CCN(c2ncc(-c3ccc(NC(=O)c4cc(C(=O)C5C=CC=CC5Br)c[nH]4)cc3)o2)CC1` (stereo not shown) [Compound 84], the IC50 is greater than 50000 nM.

In the case of `O=C(Nc1ccc(-c2cncs2)cc1)c1cc2c(-c3ccccc3OC3CC3)nccc2[nH]1` [Compound 67], the IC50 is greater than 50000 nM.

On to `CC(C)(C)OC(=O)N1CCc2cc(-c3ccc(NC(=O)c4cc(C(=O)c5ccccc5C(F)(F)F)c[nH]4)cc3)ccc21` [Compound 124], for which the 50% inhibitory concentration (IC50) is no less than 50000 nM.

With `CC(C)(C)OC(=O)n1cc(-c2ccc(NC(=O)c3cc(C(=O)c4ccccc4C(F)(F)F)c[nH]3)cc2)c2ccccc21` [Compound 129], the concentration for half-maximal inhibition (IC50) worked out at 31200 nM.

In the case of `O=C(Nc1ccc(-c2cnc(N3CCN(S(=O)(=O)C4CC4)CC3)o2)cc1)c1cc(C(=O)C2C=CC=CC2Br)c[nH]1` (stereo not shown) [Compound 87], the IC50 is 2320 nM.

For `O=C(Nc1ccc(-c2cncs2)cc1)c1cc2c(-c3ccccc3OC(F)(F)F)c(F)ccc2[nH]1` [Compound 59], the IC50 was greater than 50000 nM.

Regarding `O=C(Nc1ccc(Cc2ccccc2)cc1)c1cc(C(=O)c2ccccc2C(F)(F)F)c[nH]1` [Compound 119], the IC50 is 14200 nM.

Regarding `O=C(Nc1cccnc1)c1cc(C(=O)c2ccccc2C(F)(F)F)c[nH]1` [Compound 2], the IC50 was 800 nM.

Regarding `COc1cnccc1-c1nccc2[nH]c(C(=O)Nc3ccc(-c4cncs4)cc3)cc12` [Compound 46], the half-inhibitory concentration (IC50) is greater than 50000 nM.

On to `CCN(CCNc1ncc(-c2ccc(NC(=O)c3cc(C(=O)c4ccccc4C(F)(F)F)c[nH]3)cc2)o1)C(=O)OC(C)(C)C` [Compound 76], for which the IC50 was 5040 nM.

With `O=C(Nc1ccc(-c2cncs2)cc1)c1cc2c(-c3ccccc3OC(F)F)nccc2[nH]1` [Compound 63], the IC50 worked out at 394 nM.

As to `N#Cc1ccccc1-c1nccc2[nH]c(C(=O)Nc3ccc(-c4cncs4)cc3)cc12` [Compound 43], the IC50 worked out at 3900 nM.

As for `O=C(Nc1ccc(-c2ccccc2)cc1)c1cc(C(=O)c2ccccc2C(F)(F)F)c[nH]1` [Compound 21], the IC50 was found to be 71 nM.

For the molecule `COc1ccccc1C(=O)c1c[nH]c(C(=O)Nc2cccnc2)c1` [Compound 9], the half-maximal inhibitory concentration (IC50) was 10600 nM.

Turning to `CN1CCN(c2ncc(-c3ccc(NC(=O)c4cc(C(=O)c5ccccc5C(F)(F)F)c[nH]4)cc3)o2)CC1` [Compound 79], the IC50 turned out to be 88 nM.

As for `COCOc1cc(NC(=O)c2cc(C(=O)c3ccccc3C(F)(F)F)c[nH]2)ccc1-c1cnco1` [Compound 96], the half-maximal inhibitory concentration (IC50) amounted to 14.5 nM.

With `CC(C)(C)c1ccccc1C(=O)c1c[nH]c(C(=O)Nc2cccnc2)c1` [Compound 10], the half-inhibitory concentration (IC50) is 2010 nM.

As for `CS(=O)(=O)c1ccc(NC(=O)c2cc(C(=O)c3ccccc3C(F)(F)F)c[nH]2)cc1` [Compound 100], the IC50 came out at 162 nM.

Regarding `O=C(Nc1ccc(C(F)(F)F)cc1[N+](=O)[O-])c1cc(C(=O)c2ccccc2C(F)(F)F)c[nH]1` [Compound 112], the IC50 is no less than 50000 nM.

Take `O=C(Nc1ccc(-c2cnco2)cc1)c1cc(C(=O)c2ccccc2N2CC(F)C2)c[nH]1` [Compound 153]: the IC50 was 14 nM.

On to `CSc1ccccc1-c1nccc2[nH]c(C(=O)Nc3ccc(-c4cncs4)cc3)cc12` [Compound 65], for which the IC50 is 11200 nM.

As to `O=C(Nc1ccc(OC(F)(F)F)cc1)c1cc(C(=O)c2ccccc2C(F)(F)F)c[nH]1` [Compound 17], the concentration for half-maximal inhibition (IC50) stood at 42 nM.

As to `O=C(Nc1ccc(-c2cncs2)cc1)c1cc2c(-c3c[nH]nc3C(F)(F)F)nccc2[nH]1` [Compound 54], the IC50 was greater than 50000 nM.

As for `O=C(Nc1ccc(-c2cncs2)cc1)c1cc2c(-c3ccccc3N3CCOCC3)nccc2[nH]1` [Compound 56], the IC50 came out at 928 nM.

Consider `CC(C)(C)OC(=O)Nc1ccc(-c2ccc(NC(=O)c3cc(C(=O)c4ccccc4C(F)(F)F)c[nH]3)cc2)cc1` [Compound 116], for which the IC50 was no less than 50000 nM.

Consider `O=C(Nc1ccccc1)c1cc(C(=O)c2ccccc2C(F)(F)F)c[nH]1` [Compound 12], for which the IC50 amounted to 120 nM.

With `O=C(Nc1ccc(-c2cncs2)cc1)c1cc2c(-c3ccccc3)nccc2[nH]1` [Compound 47], the IC50 is greater than 50000 nM.

In the case of `CS(=O)(=O)c1ccccc1-c1nccc2[nH]c(C(=O)Nc3ccc(-c4ccccc4)cc3)cc12` [Compound 72], the IC50 came to 36500 nM.

Consider `O=C(c1ccccc1)c1c[nH]c(C(=O)Nc2cccnc2)c1` [Compound 6], for which the 50% inhibitory concentration (IC50) is greater than 50000 nM.

On to `O=C(Nc1ccccc1)c1ccc(NC(=O)c2cc(C(=O)c3ccccc3C(F)(F)F)c[nH]2)cc1` [Compound 111], for which the IC50 was 367 nM.

In the case of `CS(=O)(=O)c1ccccc1-c1cccc2[nH]c(C(=O)Nc3ccc(-c4cncs4)cc3)cc12` [Compound 69], the half-maximal inhibitory concentration (IC50) is 373 nM.

Consider `O=C(Nc1cccnc1)c1cc(C(=O)c2ccccc2Br)c[nH]1` [Compound 5], for which the IC50 is 1780 nM.

Regarding `O=C(c1ccc(C(F)(F)F)cc1)c1c[nH]c(C(=O)Nc2ccc(-c3cncs3)cc2)c1` [Compound 39], the IC50 was greater than 50000 nM.

As to `CN(C)c1cc(NC(=O)c2cc(C(=O)c3ccccc3C(F)(F)F)c[nH]2)ccc1-c1cnco1` [Compound 97], the IC50 came out at 50.9 nM.

Consider `O=C(Nc1ccc(-c2cnc(N3CC(F)C3)s2)cc1)c1cc(C(=O)c2ccccc2C(F)(F)F)c[nH]1` [Compound 34], for which the concentration for half-maximal inhibition (IC50) came out at 22 nM.

With `O=C(Nc1ccc(-c2cnc(N3CCCC3)s2)cc1)c1cc(C(=O)c2ccccc2C(F)(F)F)c[nH]1` [Compound 36], the IC50 was found to be 13 nM.

On to `O=C(Nc1ccc(-c2cnc(N3CC(F)(F)C3)s2)cc1)c1cc(C(=O)c2ccccc2C(F)(F)F)c[nH]1` [Compound 35], for which the half-maximal inhibitory concentration (IC50) came to 424 nM.

For `COc1ccc(CNc2ccccc2C(=O)c2c[nH]c(C(=O)Nc3ccc(-c4cnco4)cc3)c2)cc1` [Compound 130], the IC50 was no less than 50000 nM.
